Test: xn = mol fraction of the nth substance listed
Settings: Maximal bubble pressure

CCCCn1cc[n+](C)c1.[Cl-] [1-butyl-3-methylimidazolium chloride] + O
Settings	surface tension liquid-gas [mN/m]
298.1 K, x1 = 0.011	66.2
298.1 K, x1 = 0.015	65.5
298.1 K, x1 = 0.018	64.7
298.2 K, x1 = 0.004	69.9
298.2 K, x1 = 0.025	64.5
298.2 K, x1 = 0.031	63.7
298.3 K, x1 = 0.007	68.8
298.3 K, x1 = 0.053	61.7
298.3 K, x1 = 0.073	59.9
298.7 K, x1 = 0.142	56.7
298.9 K, x1 = 0.112	57.6
298.9 K, x1 = 0.226	55
299 K, x1 = 0.188	55.4
299.1 K, x1 = 0.004	68.9
299.2 K, x1 = 0.009	66.5
299.2 K, x1 = 0.016	65
299.2 K, x1 = 0.023	63.8
299.2 K, x1 = 0.303	55
299.3 K, x1 = 0.03	62.8
299.5 K, x1 = 0.033	63.3
299.5 K, x1 = 0.037	63
299.5 K, x1 = 0.374	54.9
299.6 K, x1 = 0.028	64.1
299.7 K, x1 = 0.002	70.5
299.7 K, x1 = 0.011	67.1
299.7 K, x1 = 0.017	65.6
299.9 K, x1 = 0.067	59.3
300 K, x1 = 0.048	61
300.1 K, x1 = 0.422	54.3
300.3 K, x1 = 0.077	59.6
300.3 K, x1 = 0.11	57
300.4 K, x1 = 0.089	57.9
300.4 K, x1 = 0.292	53.7
300.5 K, x1 = 0.139	55.8
300.5 K, x1 = 0.198	54.9
300.6 K, x1 = 0.134	55.9
300.6 K, x1 = 0.48	54.1
300.7 K, x1 = 0.163	55.4
300.9 K, x1 = 0.36	53.8
301.1 K, x1 = 0.225	54.4
301.2 K, x1 = 0.268	54.8
301.6 K, x1 = 0.329	54.6
302.1 K, x1 = 0.398	54.4

CCCCn1cc[n+](C)c1.F[B-](F)(F)F [1-butyl-3-methylimidazolium tetrafluoroborate] + O
Settings	surface tension liquid-gas [mN/m]
298 K, x1 = 0.053	47.7
298 K, x1 = 0.114	48.1
298.1 K, x1 = 0.014	52.4
298.1 K, x1 = 0.046	47.8
298.2 K, x1 = 0.007	60.4
298.2 K, x1 = 0.021	49.2
298.3 K, x1 = 0.029	47.8
298.3 K, x1 = 0.033	47.9
298.3 K, x1 = 0.068	48.1
298.3 K, x1 = 0.186	48.1
298.4 K, x1 = 0.004	60.8
298.4 K, x1 = 0.019	48.9
298.4 K, x1 = 0.028	48
298.4 K, x1 = 0.114	48.1
298.4 K, x1 = 0.17	48.1
298.4 K, x1 = 0.228	47.9
298.5 K, x1 = 0.006	56.1
298.5 K, x1 = 0.009	53.2
298.5 K, x1 = 0.013	50.7
298.5 K, x1 = 0.109	48.4
298.5 K, x1 = 0.163	48.2
298.6 K, x1 = 0.026	48.5
298.6 K, x1 = 0.061	48.4
298.6 K, x1 = 0.233	47.9
298.6 K, x1 = 0.292	47.6
298.6 K, x1 = 0.355	47.5
298.7 K, x1 = 0.014	50.7
298.7 K, x1 = 0.05	48.3
298.7 K, x1 = 0.42	47.4
298.8 K, x1 = 0.01	53.2
298.8 K, x1 = 0.319	47.7
298.9 K, x1 = 0.392	47.5
298.9 K, x1 = 0.435	47.2
299 K, x1 = 0.004	60.3
299.2 K, x1 = 0.51	47.3

O [water] + CCCCn1cc[n+](C)c1.F[B-](F)(F)F
x2 = 0
Settings	surface tension liquid-gas [mN/m]
298.1 K	72
298.5 K	71.9
298.9 K	71.8

O [water] + CCCCn1cc[n+](C)c1.[Cl-]
x2 = 0
Settings	surface tension liquid-gas [mN/m]
298.1 K	71.9
298.9 K	71.7
299.7 K	71.6
